≈ marks a conversion by molar mass, not a printed value. Values belong to the molecule of their own block, whether it stands above or below them. Starred links: 1 amine or outer side, 2 acyl side, 3 side chain; linkers in the order of their positions; H or OH if unused. Non-standard residues stand in square brackets, D forms with d. Residues, ends and D or L forms follow the SMILES beside them. *: point of attachment. X1 = N[C@@H](CC(=O)[*:2])[C@H](Cc1ccccc1)N[*:1]; Isovaleryl = CC(C)CC(=O)*
Legend:
[1] = target: T1, human recombinant AdamTS-5 (Homo sapiens, UniProt Q9UNA0); test: Biochemical activity testing of ADAMTS-5: aggrecan peptide cleavage assay (AlphaScreen); details: 4.5 nM human recombinant AdamTS-5, biotinylated 43mer aggrecan peptide, 180 min at 37° C.; read-out: IC50 [ADAM-NTS5]M
T1 construct: purchased R&D systems, Wiesbaden, Germany
T1 sequence (Q9UNA0 262-930): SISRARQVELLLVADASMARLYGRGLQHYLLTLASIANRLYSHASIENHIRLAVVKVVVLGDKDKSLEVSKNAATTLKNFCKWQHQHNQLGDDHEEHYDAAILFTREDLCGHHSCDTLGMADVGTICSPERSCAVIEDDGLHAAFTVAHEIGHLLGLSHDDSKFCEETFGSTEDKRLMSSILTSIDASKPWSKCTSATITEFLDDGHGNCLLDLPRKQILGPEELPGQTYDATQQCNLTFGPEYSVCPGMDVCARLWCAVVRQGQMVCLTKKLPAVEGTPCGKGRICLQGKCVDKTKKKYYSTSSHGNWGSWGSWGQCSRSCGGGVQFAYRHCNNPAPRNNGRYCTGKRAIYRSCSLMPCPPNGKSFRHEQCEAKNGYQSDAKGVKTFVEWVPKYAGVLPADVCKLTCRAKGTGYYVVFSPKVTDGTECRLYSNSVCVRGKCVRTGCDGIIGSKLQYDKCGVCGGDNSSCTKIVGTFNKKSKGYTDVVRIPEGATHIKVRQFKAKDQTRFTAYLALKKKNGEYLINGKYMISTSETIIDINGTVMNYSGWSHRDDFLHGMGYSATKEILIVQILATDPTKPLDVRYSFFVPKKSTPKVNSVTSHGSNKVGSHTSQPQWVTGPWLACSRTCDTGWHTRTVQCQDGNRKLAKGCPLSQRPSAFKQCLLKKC
Description: ADAMTS-5 is a metallo protease with glutamyl-endoprotease activity and cleaves aggrecan core protein at E373-A374 in the interglobular domain. To fully analyse the inhibitory potential of compounds on AdamTS-5 activity an Alphascreen® assay with a biotinylated 43mer aggrecan oligopeptide as substrate was performed. Cleavage by ADAMTS-5 caused production of a neoepitop N-terminus ARGS at the C-terminal fragment. The detection of this product is performed with streptavidin-AlphaScreen® donor beads binding to the biotin label and an anti-neoepitop (“ARGSV”) antibody that anchors anti-mouse IgG-coated AlphaLisa® acceptor beads to the other end of the generated fragment. Thereby, donor and acceptor beads get in proximity and a luminescence Alphascreen® signal is generated via the release of singlet oxygen. The cleavage activity was detectable directly by the increase in Alphascreen® signal.
The aggrecan peptide cleavage assay was performed as 384 well AlphaScreen® (Perkin Elmer) assay format in Perkin Elmer 384 AlphaPlate (proxiplate) shallow well microtiter plates and was used for high throughput screen in a total assay volume of 10 μl. 4.5 nM human recombinant AdamTS-5 (R&D systems, Wiesbaden, Germany) and 30 nM biotinylated peptide […]-K(bio) (custom-made, Biosynthan, Berlin, Germany) as substrate were incubated in a total volume of 6 μl (100 mM Tris/HCl, 150 mM NaCl, 10 mM CaCl2, 0.05% Brij®-35, 1% DMSO, 0.084% BSA, pH 7.5) in the absence or presence of the test compound (10 dilution concentrations) for 180 min at 37° C. The reaction was stopped and the first detection step performed by the addition of 2 μl detection solution 1 (48 mM EDTA, 8 nM aggrecan antibody N-term neoepitope ARG, mouse monoclonal BC3 antibody (MDBioproducts, Egg, Switzerland), 100 μg/ml Streptavidin Alphascreen® donor beads (Perkin Elmer, Rodgau, Germany) in 100 mM Tris/HCl, 150 mM NaCl, 0.05% Brij®-35, 0.1% BSA, pH 7.5). After an one-hour incubation at 37° C. 2 μl of the second detection solution (25 μg/ml anti-mouse AlphaLisa® acceptor beads (Perkin Elmer, Rodgau, Germany) in 100 mM Tris/HCl, 150 mM NaCl, 0.05% Brij®-35, 0.1% BSA, pH 7.5 were added. The plates were incubated for […] in the dark.
The AlphaScreen signal was measured with an Envision multimode reader (Perkin Elmer LAS Germany GmbH) with the Alphascreen protocol from Perkin Elmer (laser mode) emission wavelength 570 nm. The full value used was the inhibitor-free reaction. For the zero value a pharmacological reference was used. The inhibitory values (IC50) for the compounds were determined using either the program Symyx Assay Explorer® or Condosseo® from GeneData.

[2] = system: bovine cartilage explants; test: GAG-Assay (GAG release from bovine cartilage explants); format: cell-based; details: Bos taurus, GAG release into supernatant, unit inferred
Description: The assay is based on bovine cartilage explants from the metacarpal joint (MCP) with a diameter of 4 mm and a thickness of 1-2 mm. Explants are freshly harvested at the day of slaughter. Before the start of the experiment, explants are incubated in DMEM medium+10% serum+30 μg/ml ascorbic acid for 48 h (200 μl). The pre-incubation is performed to enlarge the assay window. Explants are incubated at 37° C. and 7.5% CO2. The number of replicates for all groups is n=4.
Induction of cartilage degradation is induced by treatment of the explants with IL-1 alpha (10 ng/ml) in serum-free medium for 5 days. As negative control, explants are left untreated in serum-free DMEM medium. This control is not part of the baseline calculation but an internal control for the degree of degradation which is strictly dependent on the IL1-alpha quality. IL-1 alpha induces the activity of proteases such as ADAMTS-5 and MMPs which in turn degrade the matrix. Degradation products of the matrix (GAG: glycosaminoglycan) can be measured in the supernatant. The level of GAG release induced by IL1-alpha is defined as the 0% effect level. […] This DRC is the basis for the IC50 calculation.
IL-1 alpha and the ADAMTS-5 inhibitors are incubated for 5 days, then GAG is measured in the supernatant. The explants are digested with papain to determine the amount of GAG in the explants.
In order to investigate the effect of potential cathepsin D inhibitors on cartilage degradation, a pH-induced model based on bovine explants is used. The pH of the medium in which the explants are cultivated is matched here to the pathophysiological pH of an arthritic knee. This pH is pH 5.5. […] The amount of GAGs liberated can be determined quantitatively with the aid of DMMB (dimethylmethylene blue hydrochloride). If sulfated GAGs are detected using dimethylmethylene blue hydrochloride, the decrease in the absorption at 633 nm is utilised. […] In order to determine the concentration, a calibration line is also recorded using chondroitin sulfate. […]

Solubility pH7.4 = format: physicochemical; details: pH 7.4, aqueous buffer
[3] = system: carrageenan-induced inflammation of rat knee joint; test: Investigation of the anti-hyperalgesic effect in animals (carrageenan injected intra-articularly into rat knee joint); format: in vivo; details: intra-articular administration 30 minutes before CAR
Description: In order to induce an inflammation reaction, a carrageenan solution (CAR, 1%, 50 μl) was injected intra-articularly on one side into a rat knee joint. The uninjected side was used for control purposes. Six animals per group were used. The […] was determined by means of a micrometer screw (medial-lateral on the knee joint), and the thermal hyperalgesia was determined by means of a directed infrared light source by the Hargreaves method (Hargreaves et al., 1988) on the sole of the foot. Since the site of inflammation (knee joint) is different from the site of measurement (paw sole), use is made here of the term secondary thermal hyperalgesia, the mechanism of which is of importance for the discovery of effective analge-sics.
Experimental description of thermal hyperalgesia (Hargreaves test): the experimental animal is placed in a plastic chamber on a quartz sheet. Before testing, the experimental animal is firstly given about 5-15 minutes time to familiarise itself with the environment. […] Light reflected by the paw is recorded as long as the experimental animal sits still. Withdrawal of the paw interrupts this reflection, after which the infrared light source is switched off and the time from switching on to switching off is recorded. […]

- IC50 [1]: 170 nM
- solubility (Solubility pH7.4): 157 µg/mL (≈ 303 µM)
Structure (SMILES): CCC[C@@H](C[C@H](NC(=O)c1ccc(-c2ccccc2)cc1)C(=O)NC(C)(C)Cc1ccc(F)cc1)C(=O)O [Compound 7]
- IC50 [2]: 1000 nM

- IC50 [1]: 170 nM
- solubility (Solubility pH7.4): 838 µg/mL (≈ 1610 µM)
Structure (SMILES): COC[C@@H](C[C@H](NC(=O)c1ccc(-c2ccccc2)cc1)C(=O)NC(C)(C)Cc1ccc(F)cc1)C(=O)O [Compound 8]
- IC50 [2]: 1200 nM

Further lines, the molecule ahead of its results:

Structure (SMILES): C[C@]12C=CC(=O)C=C1CC[C@H]1[C@@H]3C[C@@H](O)[C@](O)(C(=O)CO)[C@@]3(C)C[C@H](O)[C@@]12F [TAC, Triamcinolone, reference compound]
- CAR-induced swelling ([3]; rat knee joint, TAC 10 μg/joint): capable of reducing the CAR-induced swelling

Structure (SMILES): C[C@@H](C[C@H](NC(=O)c1ccc(-c2ccccc2)cc1)C(=O)NC(C)(C)Cc1ccc(F)cc1)C(=O)O [Compound 5, (2S,4S)-4-[(Biphenyl-4-carbonyl)-amino]-4-[2-(4-fluoro-phenyl)-1,1-dimethyl-ethylcarbamoyl]-2-methyl-butyric acid]
- IC50 [1]: 85 nM
- IC50 [2]: 1800 nM
- solubility (Solubility pH7.4): 677 µg/mL (≈ 1380 µM)

Structure (SMILES): CC[C@H](C)[C@H](NC(=O)C[C@H](N)[C@H](Cc1ccccc1)NC(=O)[C@@H](NC(=O)[C@H](CC(C)C)NC(=O)CC(C)C)C(C)C)C(=O)N[C@H](C(=O)O)C(C)C [specific DDR2 inhibitor, (S)-2-[(2S,3S)-2-((3S,4S)-3-amino-4-{(S)-3-methyl-2-[(S)-4-methyl-2-(3-methyl-butyrylamino)pentanoylamino]butyrylamino}-5-phenylpentanoylamino)-3-methylpentanoylamino]-3-methylbutyric acid] (Isovaleryl-LV[X1]IV-OH)
- thermal hyperalgesia (Hargreaves test) ([3]; rat, difference in withdrawal times between inflamed and non-inflamed paw): able to reduce the extent of thermal hyperalgesia as a function of the dose
